# Where two headings read alike, the source gives them in different places. Starred links: 1 amine or outer side, 2 acyl side, 3 side chain; linkers in the order of their positions; H or OH if unused. Non-standard residues stand in square brackets, D forms with d. Residues, ends and D or L forms follow the SMILES beside them. Groups on a side chain read outwards from the residue. *: point of attachment. C20 diacid = O=C(O)CCCCCCCCCCCCCCCCCCC(=O)*; C18 diacid = O=C(O)CCCCCCCCCCCCCCCCC(=O)*; γGlu = O=C(O)[C@H](CCC(=O)[*:2])N[*:1]; αMeF = C[C@](N)(Cc1ccccc1)C(=O)O; AEEA = NCCOCCOCC(=O)O; Aib = CC(C)(N)C(=O)O
# How the values were obtained:
# [1] = system: T1, porcine pancreatic pepsin; assay: Proteolytic resistance to FasSSGF containing porcine pancreatic pepsin; type: in vitro ADME; settings: pig, simulated gastric fluid
# T1 construct: purchased Sigma P7012
# Protocol: (§1) Lyophilized porcine pancreatic pepsin (Sigma: P7012) was reconstituted to 0.5 mg/mL (˜2500 units/mL) in freshly prepared FasSSGF (Biorelevant media) to give the enzyme stock solution. Peptide stock solution was prepared to a concentration of 250 μM (˜1.0 mg/mL) in FasSSGF. 200 μL ([…], ˜250 units) of pepsin stock solution was added to 200 μL of peptide solution (1.0 mg/mL, ˜100 μg of peptide, ˜25 nmoles) and the mixture was co-incubated in a temperature-regulated incubator at 37° C. for the duration of the experiment. 30 μL aliquot of the peptide-enzyme mixture was periodically withdrawn (t=0, 5, 10, 15, and 30 min) and quenched immediately by addition of 80 μL of 0.1 M ammonium bicarbonate solution in water/acetonitrile (4:1, pH 8) to arrest proteolytic activity. 30 μL aliquot was analyzed by analytical RP-HPLC. Analytical RP-HPLC method: Agilent Polaris C8-A column (4.6×100 mm, 3 micron) eluted with a linear binary gradient of 10-90°/MeCN (0.1% TFA v/v) in water (0.1% TFA v/v) over either 10 or 15 mins at 1.5 mL min-1 at 40° C. with detection by UV absorption at 210 nm. Manual integration (AUC) allowed estimation of remaining intact peptide over the time course of the experiment.
# [2] = target: T2, neprilysin (Homo sapiens, UniProt P08473); assay: Proteolytic resistance to neprilysin; type: in vitro ADME; settings: pH 8.3
# T2 construct: purchased R&D Systems 1182-ZNC-010
# T2 sequence (P08473 whole entry): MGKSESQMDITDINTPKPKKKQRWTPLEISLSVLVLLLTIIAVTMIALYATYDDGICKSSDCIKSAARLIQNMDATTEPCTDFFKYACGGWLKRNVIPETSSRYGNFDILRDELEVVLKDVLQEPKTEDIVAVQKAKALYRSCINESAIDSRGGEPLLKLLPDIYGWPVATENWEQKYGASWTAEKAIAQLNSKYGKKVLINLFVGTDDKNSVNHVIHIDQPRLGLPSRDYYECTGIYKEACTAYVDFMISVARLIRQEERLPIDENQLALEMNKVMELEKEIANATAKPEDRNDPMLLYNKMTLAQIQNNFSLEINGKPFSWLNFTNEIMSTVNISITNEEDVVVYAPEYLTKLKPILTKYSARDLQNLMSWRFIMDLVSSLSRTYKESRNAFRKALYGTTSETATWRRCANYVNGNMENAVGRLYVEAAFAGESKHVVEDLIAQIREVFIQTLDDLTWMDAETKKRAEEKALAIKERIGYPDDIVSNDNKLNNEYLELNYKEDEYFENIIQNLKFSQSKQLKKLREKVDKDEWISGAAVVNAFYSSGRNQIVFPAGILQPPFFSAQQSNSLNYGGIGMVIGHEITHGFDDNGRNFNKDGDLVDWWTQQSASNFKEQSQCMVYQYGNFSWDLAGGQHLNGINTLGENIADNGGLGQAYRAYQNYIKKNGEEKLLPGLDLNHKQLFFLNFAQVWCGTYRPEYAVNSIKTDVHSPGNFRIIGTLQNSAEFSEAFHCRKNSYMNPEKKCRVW
# In short: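 Peptide (~250 µM stock) was mixed 1:1 with recombinant neprilysin (100 µg/mL stock) in Tris/NaCl/NaHCO3 buffer, pH 8.3, at 37 °C. Aliquots taken at 0, 30 min, 1, 2, 4 and 24 h were TFA-quenched. Intact peptide remaining was estimated by RP-HPLC peak area at 210 nm.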
# [3] = system: wildtype (WT) mice; assay: Glucose change in wildtype mice; type: in vivo, mouse; settings: s.c., 1.5 nmol/kg, somatostatin pretreatment 30 min prior to cpd
# In short: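 Chow-fed wildtype mice, 8-14 weeks old, n=4-8/group, fasted 2 h before peptide injection, in some studies after octreotide 10 mg/kg 30 min before dosing. Blood glucose by glucometer at −30, 0, 30, 60, 120, 180, 240 and 360 min; mice reused up to 3 times with ≥1-week washout.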
# [4] = system: Male C57Bl/6 mice; assay: Mouse acute food intake study; type: in vivo; settings: s.c., dose 10 nmol/kg, food intake at 24 h vs vehicle
# Protocol: Male C57Bl/6 mice obtained from Jackson Laboratories or Charles River at 8-9 weeks of age and were housed one per cage in BioDaq (Research Diets) cages. Mice were placed on Alpha Dri bedding, standard chow diet (Envigo, 2018) and given water pouches. Mice were allowed to acclimate for 1-2 weeks. Body weight was measured to ensure appropriate acclimation. After acclimation, mice were sham dosed a minimum of 2 times prior to initiation of food intake study. On study day, mice were placed in clean cage bottoms, weighed, and fasted for 6-8 hours. Mice were sorted into groups based on average 24-hour food intake data and body weight. 1-2 hours prior to lights out, mice were dosed subcutaneously with one vehicle or test peptide dissolved in an appropriate vehicle at 5 mL/kg. Mice were left undisturbed and allowed access to food and water for 48 hours. Automated food intake was monitored in the BioDaq system was monitored during this time. Discrete food intake data was exported into MS Excel from which cumulative food intake data was generated and analyzed.
# [5] = dog, in vivo, iv, 10 nmol/kg
# Source text: (§2) Selected test peptides (n=8) were profiled for pharmacokinetic (PK) properties in the mouse after single intravenous (i.v.) or subcutaneous (s.c.) dose. A subset (n=4) meeting the acceptance criteria was subsequently profiled in the dog (single i.v. dose) and non-human primate (single i.v. and s.c. dose). […] Low-binding plasticware containers were used during preparation and sample handling to avoid non-specific binding.
# Blood of each sample was transferred into plastic micro centrifuge tubes containing EDTA-K2, inverted several times for proper mixing of contents and then placed on wet ice.
# (§3) Samples analysis: Samples were analyzed by LC-MS/MS. Calibration standards were injected at the beginning and end of each batch and the determined concentration for each prepared standard was used to construct a calibration curve. Plasma and dose aliquot sample concentrations were determined from the plasma calibration curve.
# Data analysis: Plasma concentration data was analyzed by non-compartmental analysis (NCA) using Phoenix Winnonlin v. 8.3.3.33. Linear trapezoidal rule was used for increasing values and log trapezoidal rule was used for decreasing values, applying uniform weighting for lambda_z calculations. Subcutaneous bioavailability was calculated as the ratio AUC(s.c.)0-inf/AUC(i.v.)0-inf. Reported values (Table 18) represent the mean of the individual estimates.
# [6] = cynomolgus monkey, in vivo, 20 nmol/kg
# Source text: as §2
# Non-human primate: PK was studied in non-naïve male cynomolgus monkeys. After dosing, PK samples were collected from the femoral vein. Blood of each sample was transferred into plastic micro centrifuge tubes containing EDTA-K2, inverted several times for proper mixing of contents and then placed on wet ice.
# as §3
# Data analysis: Plasma concentration data was analyzed by non-compartmental analysis (NCA) using Phoenix Winnonlin v. 8.3.3.33. […] Subcutaneous bioavailability was calculated as the ratio AUC(s.c.)0-inf/AUC(i.v.)0-inf. […]
# [7] = target: T3, porcine pancreatic pepsin (Sus scrofa, UniProt P00791); assay: Proteolytic resistance to FasSSGF containing porcine pancreatic pepsin; type: in vitro ADME; settings: 0 min, FasSSGF with pepsin, 37° C.
# T3 construct: purchased Sigma P7012
# T3 sequence (P00791 60-385): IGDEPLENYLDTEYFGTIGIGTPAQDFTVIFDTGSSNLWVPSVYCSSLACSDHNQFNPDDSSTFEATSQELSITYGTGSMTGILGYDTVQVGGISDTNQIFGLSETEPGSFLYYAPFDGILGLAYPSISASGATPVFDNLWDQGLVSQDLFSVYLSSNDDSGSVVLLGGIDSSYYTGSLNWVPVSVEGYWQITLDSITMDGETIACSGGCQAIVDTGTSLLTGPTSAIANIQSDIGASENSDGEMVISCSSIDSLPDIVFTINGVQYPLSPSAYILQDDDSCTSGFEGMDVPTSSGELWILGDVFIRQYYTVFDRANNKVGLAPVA
# Protocol: as §1
# [8] = system: Pancreatin; assay: Proteolytic resistance to fasted-state simulated intestinal fluid (FasSSIF/Pancreatin); type: in vitro ADME; settings: 0 min, 37° C.
# Protocol: A fresh suspension of FasSSIF/P (Fasted-State Simulated Intestinal Fluid+USP Pancreatin®) was prepared according to that described by Galia, Nicolaides, Hörter, Löbenberg, Reppas and Dressman: Pharm. Res. 15 (1998) 698-70.5, and USP XL requirements. The resulting preparation was used immediately without storage.
# Peptide for evaluation (1.0 mg) was dissolved in pre-warmed FasSSIF without Pancreatin® (200 μL). To this fresh FasSSIF/Pancreatin® (100 μL) was added to initiate potential proteolysis. Following momentary vortexing of the reaction tube the mixture was incubated at 37° C. in a thermostatic water bath for the duration of the experiment. 25 μL aliquot of the co-incubated peptide-enzyme mixture was periodically withdrawn (t=0, 5, 10 15 and 30 min) and quenched immediately by addition to a solution of 10% TFA in 1:1 water/acetonitrile (75 μL) to arrest proteolytic activity. Quenched samples were centrifuged (7800 RPM, 3 mins) to pellet solids and 10 μL aliquots of the supernatant solution were analyzed using analytical RP-HPLC as follows: Analytical RP-HPLC method: Agilent Polaris C8-A column (4.6×100 mm, 3 micron) eluted with a linear binary gradient of 10-90% MeCN (0.1% TFA v/v) in water (0.1% TFA v/v) over either 10 or 15 mins at 1.5 mL min^−1 at 40° C. with detection by UV absorption at 210 nm. […]
Structure (SMILES),"remaining at 10 min, 125 µM [1] [%]","% intact peptide over time, Neprilysin [2] [%]",WT % glucose change 120 min [3] [%],24 hr % Vehicle Food Intake [4] [%],half-life [5] [days],bioavailability [6] [%],half-life ([6]; iv) [days],"% intact peptide over time (min), FasSSGF [7] [%]","% intact peptide over time (min), FasSSIF [8] [%]"
CC[C@H](C)[C@H](NC(=O)[C@H](Cc1c[nH]c2ccccc12)NC(=O)[C@H](CCC(=O)O)NC(=O)[C@@H](NC(=O)[C@](C)(Cc1ccccc1)NC(=O)[C@H](CC(=O)O)NC(=O)[C@H](CCC(N)=O)NC(=O)[C@H](C)NC(=O)[C@H](C)NC(=O)[C@H](CCCCNC(=O)CC[C@H](NC(=O)CCCCCCCCCCCCCCCCC(=O)O)C(=O)O)NC(=O)[C@H](CO)NC(=O)[C@H](CC(=O)O)NC(=O)[C@H](CC(C)C)NC(=O)[C@](C)(Cc1ccccc1)NC(=O)[C@H](CCCCN)NC(=O)[C@H](CO)NC(=O)[C@@H](NC(=O)[C@H](CC(=O)O)NC(=O)[C@H](CO)NC(=O)[C@@H](NC(=O)[C@](C)(Cc1ccccc1)NC(=O)[C@H](CO)NC(=O)CNC(=O)[C@H](Cc1c[nH]cn1)NC(=O)C(C)(C)NC(=O)[C@@H](N)Cc1c[nH]cn1)[C@@H](C)O)C(C)C)C(C)C)C(=O)N[C@@H](C)C(=O)N[C@@H](CC(N)=O)C(=O)N[C@H](C(N)=O)[C@@H](C)O [Peptide 7] (H-H[Aib]HGS[αMeF]TSDVSK[αMeF]LDSK([γGlu-C18 diacid])AAQD[αMeF]VEWIANT-NH2; N-terminus assumed),60,100,5.4,55.0,–,–,–,–,–
"CC[C@H](C)[C@H](NC(=O)C(C)(C)NC(=O)[C@H](CCC(N)=O)NC(=O)[C@@H](NC(=O)[C@](C)(Cc1ccccc1)NC(=O)[C@H](CC(=O)O)NC(=O)[C@H](CCCCNC(=O)COCCOCCNC(=O)COCCOCCNC(=O)CC[C@H](NC(=O)CC[C@H](NC(=O)CCCCCCCCCCCCCCCCCCC(=O)O)C(=O)O)C(=O)O)NC(=O)[C@H](C)NC(=O)[C@H](C)NC(=O)[C@H](CCCNC(=N)N)NC(=O)[C@H](CO)NC(=O)[C@H](CC(=O)O)NC(=O)[C@H](CC(C)C)NC(=O)[C@](C)(Cc1ccccc1)NC(=O)[C@H](CCCCN)NC(=O)[C@H](CO)NC(=O)[C@@H](NC(=O)[C@H](CC(=O)O)NC(=O)[C@H](CO)NC(=O)[C@@H](NC(=O)[C@](C)(Cc1ccccc1)NC(=O)[C@H](CO)NC(=O)CNC(=O)[C@H](Cc1c[nH]cn1)NC(=O)C(C)(C)NC(=O)[C@@H](N)Cc1c[nH]cn1)[C@@H](C)O)C(C)C)C(C)C)C(=O)N[C@@H](C)C(=O)N[C@@H](CC(N)=O)C(=O)N[C@H](C(N)=O)[C@@H](C)O [Peptide 229, H-Aib-H-G-S-αMePhe-T-S-D-V-S-K-αMePhe-L-D-S-R-A-A-K(ε-(O2Oc)-(O2Oc)-γE-γE-C20diacid)20-D-αMePhe-V-Q-Aib-I-A-N-T-amide] (H-H[Aib]HGS[αMeF]TSDVSK[αMeF]LDSRAAK([AEEA-AEEA-γGlu-γGlu-C20 diacid])D[αMeF]VQ[Aib]IANT-NH2)",–,100,–,–,3.58,75,5.42,–,–
"CC[C@H](C)[C@H](NC(=O)[C@H](Cc1ccccc1)NC(=O)[C@H](CCC(=O)O)NC(=O)[C@H](CCCCNC(=O)COCCOCCNC(=O)COCCOCCNC(=O)CC[C@H](NC(=O)CCCCCCCCCCCCCCCCC(=O)O)C(=O)O)NC(=O)[C@H](C)NC(=O)[C@H](C)NC(=O)[C@H](CCC(N)=O)NC(=O)CNC(=O)[C@H](CCC(=O)O)NC(=O)[C@H](CC(C)C)NC(=O)[C@H](Cc1ccc(O)cc1)NC(=O)[C@H](CO)NC(=O)[C@H](CO)NC(=O)[C@@H](NC(=O)[C@H](CC(=O)O)NC(=O)[C@H](CO)NC(=O)[C@@H](NC(=O)[C@H](Cc1ccccc1)NC(=O)[C@@H](NC(=O)CNC(=O)[C@H](CCC(=O)O)NC(=O)C(C)(C)NC(=O)[C@@H](N)Cc1cnc[nH]1)[C@@H](C)O)[C@@H](C)O)C(C)C)C(=O)N[C@@H](C)C(=O)N[C@@H](Cc1c[nH]c2ccccc12)C(=O)N[C@@H](CC(C)C)C(=O)N[C@H](C(=O)N[C@@H](CCCNC(=N)N)C(=O)NCC(=O)N[C@@H](CCCNC(=N)N)C(=O)NCC(=O)O)C(C)C [semaglutide, reference compound]",–,–,–,–,–,–,–,100,100

# Reference: patent US12630600B2 (MEDIMMUNE LIMITED, priority 2022, dated 2026)
